Series [1] is described as follows: Kinetic aqueous solubility. The series is classed as physicochemical.
Another series relates to panel of 403 kinases. Put plainly: Kinase selectivity scores S35 / S1 @ 10 μM (403 kinases). The series is classed as binding.
For series [2] the following is noted: BALB/c ByJ Rj, in vivo.
Series [3] is described as follows: Intrinsic clearance in human hepatocytes. It is filed as in vitro ADME. Particulars: 2.5 μM. On the procedure: The intrinsic clearance was assessed in cryopreserved Hepatocytes obtained by Human livers donors of mix gender pooled together, male balb-c mouse, male Wistar Han rats and male Göttingen minipig, by looking at the parent compound disappearance. The incubations were performed using a final concentration of viable cells of 1 million/ml (viability above 70%) and test item of 2.5 μM. Incubations were followed up to 2 h. Aliquotes were withdrawn at different time points and reaction quenched with acetonitrile. After centrifugation the supernatant was analyzed by HPLC/MS to quantify the remaining amount of parent in comparison with time 0. The clearance was calculated by fitting the log of the percentage remaining with Graphpad Prism ver.7.

In series [4] the test system is 44 targets (binding and enzyme/uptake assays). Kind of series: CEREP Safety Screen-44. On the procedure:
(§1) An in vitro pharmacology assay was conducted to assess the capability of the compounds to interact with different pharmacological targets when tested at 10 μM in different binding and enzyme/uptake assays. The included targets are indicative of potential effects in major organs and drug-drug interactions.
Compound binding was calculated as a % inhibition of the binding of a radioactively labelled ligand specific for each target. […] […].

Series [5] can be described thus: Plasma exposure, dermis concentration and skin/plasma ratio compared to Ruxolitinib. Particulars: in vivo.
The next series is described as follows: pKa. It is filed as physicochemical.
The nature of a further series: SF logD. It is filed as physicochemical.
Series [6] concerns IL-6 induced Phospho-STAT3 (Tyr705) in TF-1 cells. Put plainly: In vitro cellular pSTAT3 assay, IL-6 stimulated TF-1 cells. The series is classed as cell-based. Particulars: Homo sapiens.
A short description of series [7]: In vivo pharmacokinetic analysis in rat, iv. Also on record: species or system male Wistar Han rat. Particulars: iv 1 mg/kg; for clearance / Vd / half-life: male, Wistar Han, rat, whole blood; for clearance: blood, read-out: iv PK rat: Cl; for Vd: read-out: iv PK rat: Vd; for half-life: read-out: iv PK rat: t½ (converted). The method, then:
One male Wistar Han rat. Compound was administered intravenously to fed animal at a target dose of 1 mg/kg, dose volume: 2 mL/kg, in DMSO/hydroxypropyl-beta-cyclodextrin 20% in phosphate buffer 60 mM pH 7 (5:95). Blood samples were collected at various time points. Blood samples were then assayed using a method based upon protein precipitation with acetonitrile followed by LC/MS/MS analysis. Non-compartmental methods were used for pharmacokinetic analysis of blood concentration versus time data

For a further series, the system named is 3T3 murine fibroblasts. Kind of series: Phototoxicity, neutral red uptake. The series is classed as cell-based. Particulars: 3T3 fibroblasts, 7 J/cm2 UVA/UVB. The method, then: Phototoxicity was evaluated in 3T3 murine fibroblasts. Cells were incubated with different concentrations of test compounds. One plate was then exposed to a dose of 7 J/cm2 (UVA/UVB mimicking usual solar exposure) whereas the other plate was kept in the dark. The treatment medium was then replaced with culture medium and after 24 h cell viability was determined by Neutral red uptake. Concentration leading to 50% decrease of viability was calculated in the absence and in the presence of irradiation. The PIF (photo irritation factor) ratio was then calculated: […]).

Series [8] can be described thus: Protein binding analysis (RED), rat plasma. It is filed as in vitro ADME, male Wistar Han rat. Particulars: 5 μM, RED 4 h. On the procedure:
The protein binding was assessed in plasma of Human, male balb-c mice, male Wistar Han rat, male Gottingen minipig by rapid equilibrium dialysis (RED) devices. After the plasma and buffer phosphate 50 mM pH7.4 were equilibrated at 37° C., the compound was added to plasma to reach a final concentration of 5 μM. An aliquot of plasma was withdrawn immediately. Equilibration under mild agitation was continued for 4 h. The plasma and buffer were sampled and samples were quenched with 4 volumes of acetonitrile and centrifuged. Supernatant was quantified in HPLC/MS/MS to calculate the recovery and the percentage of compound dissolved in the buffer (unbound) and bound to plasma proteins.

The subject of series [9] is IL-6 induced p-STAT3Y705 in skin. Put plainly: In vivo pharmacodynamy model: IL-6 induced Phospho-STAT3, topical. Also on record: species or system BALB/c ByJ Rj mice. Particulars: topical 1 mM, vehicle PG/EtOH 3/7.
Series [10] in a line: In vivo pharmacokinetic analysis in minipig, iv. The arrangement: species or system male Göttingen minipigs. Particulars: iv 1 mg/kg; for clearance: male, Göttingen, minipig, whole blood, blood, read-out: iv PK minipig: Cl. On the procedure:
Three male Göttingen minipigs. Compound was administered intravenously to fed animals at a target dose of 1 mg/kg, dose volume 1 mL/kg, in DMSO: hydroxypropyl-β-cyclodextrin 20% in phosphate buffer 60 mM pH 7 (5:95). Blood samples were collected at various time points. Blood samples were then assayed using a method based upon protein precipitation with acetonitrile followed by LC/MS/MS analysis. Non-compartmental methods were used for pharmacokinetic analysis of blood concentration versus time data.

The next series has as its target T1, acetylcholinesterase (h) (Homo sapiens, UniProt P22303).
T1 construct: CEREP
Kind of series: CEREP Safety Screen-44: acetylcholinesterase (h). The series is classed as biochemical. The method, then:
as §1
Compound binding was calculated as a % inhibition of the binding of a radioactively labelled ligand specific for each target. […] Results showing an inhibition or stimulation higher than 50% are considered to represent significant effects of the test compounds.

In another series the test system is IL6 signalling in hWB. Put plainly: hWB assay, IL6. The series is classed as cell-based, human. Particulars: human whole blood; read-out: hWB assay: IC50 IL6.
Series [11] in a line: Systemic level in PD/IL6 mouse topical dose response. Particulars: topical 10 mM, PG/Acetone/Transcutol.
Where [12] appears, read: TF-1, cellular assay IL6, read-out: Free IC50.
Setting [13] is: TF-1 cells, IL-6 100 ng/ml, pSTAT3, read-out: Cellular Assay: IC50 IL6.

Molecules are shown by their SMILES. Where two headings read alike, the source gives them in different places.

T1 sequence (P22303 32-614): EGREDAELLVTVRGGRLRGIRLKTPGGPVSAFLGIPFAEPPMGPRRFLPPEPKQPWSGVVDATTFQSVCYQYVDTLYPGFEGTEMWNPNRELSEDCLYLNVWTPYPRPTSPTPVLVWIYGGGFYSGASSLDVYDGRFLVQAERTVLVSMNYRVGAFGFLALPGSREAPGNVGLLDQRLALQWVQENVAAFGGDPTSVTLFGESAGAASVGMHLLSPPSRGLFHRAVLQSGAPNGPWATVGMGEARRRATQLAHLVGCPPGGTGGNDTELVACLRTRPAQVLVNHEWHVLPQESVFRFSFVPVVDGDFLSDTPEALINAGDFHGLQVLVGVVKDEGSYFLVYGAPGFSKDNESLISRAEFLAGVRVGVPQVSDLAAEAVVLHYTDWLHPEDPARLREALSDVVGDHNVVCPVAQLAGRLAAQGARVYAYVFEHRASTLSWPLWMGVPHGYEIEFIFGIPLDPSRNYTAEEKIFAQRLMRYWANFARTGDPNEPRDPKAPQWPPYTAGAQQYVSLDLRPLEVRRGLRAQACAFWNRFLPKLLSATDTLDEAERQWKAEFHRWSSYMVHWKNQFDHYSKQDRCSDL

Regarding `CC1(C)CCN(C(=O)C[C@H]2C[C@@H](Nc3c(C#N)cnc4[nH]ccc34)C2)CC1` [Compound A, 4-(((cis)-3-(2-(4,4-dimethylpiperidin-1-yl)-2-oxoethyl)cyclobutyl)amino)-1H-pyrrolo[2,3-b]pyridine-5-carbonitrile], the Kinetic aq sol in series [1] came out at 15 µM. Further, the “Selectivity @ 10 μM: number of kinases out of 403” value in the series with panel of 403 kinases was 24/403. Further, the “PD/IL6 mouse top DR 0.01-10 mM: Systemic level @ 10 mM - 2 hrs” value in series [2] was 9.8 nM. For the same compound, the “Intr. Clear. h heps” value in [3] worked out at 264 microL/min/10 6 cells. Moreover, the “Safety panel (Cerep): 44 targets % inh @ 10 microM, Nb of targets > 50% inh” value in series [4] (10 microM) is listed as 1/44. Also, in series [5], the “dermis concentration, times higher compared to Ruxolitinib” value was 2.4; the “plasma exposure, times lower compared to Ruxolitinib” value is listed as 2.9; the “skin/plasma ratio, times higher compared to Ruxolitinib” value is reported as 7. Further, the pKa in the series “pKa” is 3.7. The compound also registered a pH-dependent lipophilicity (logD) in the series “SF logD” of 3.7. In addition, the IC50 in series [6] (setting [12]) amounted to 0.367 µM. Besides, the IC50 in series [6] (setting [13]) worked out at 0.011 µM. In [7], the “iv PK rat: Cl (value in brackets, %)” value was 46%; the clearance is 36 mL/min/kg; the volume of distribution (Vd) was 1.4 L/kg; the half-life was 32.4 min. Moreover, the Phototox entry with 3T3 murine fibroblasts is on record as “Neg/Neg”. The same compound returned a rFU in series [8] of 3.6%. The “PD/IL6 mouse top @1 mM % inh vs vehicle” value in series [9] amounted to 66%. Further, in series [10], the “iv PK minipig: Cl (value in brackets, %)” value is on record as 111% and the clearance amounted to 31 mL/min/kg. The “Safety panel (Cerep): target with > 50% inh @ 10 microM” value on acetylcholinesterase (h) is reported as “acetylcholinesterase”. The IC50 with IL6 signalling in hWB turned out to be 1.3 µM.
In [1], `CC1CCN(C(=O)C[C@H]2C[C@@H](Nc3c(C#N)cnc4[nH]ccc34)C2)CC1` [Compound B, 4-(((cis)-3-(2-(4-Methylpiperidin-1-yl)-2-oxoethyl)cyclobutyl)amino)-1H-pyrrolo[2,3-b]pyridine-5-carbonitrile] showed a Kinetic aq sol of 35 µM. For the same compound, the “Selectivity @ 10 μM: number of kinases out of 403” value with panel of 403 kinases is 19/403. Further, the “Intr. Clear. h heps” value in series [3] worked out at 147 microL/min/10 6 cells. For the same compound, in series [4] (10 μM), the “Safety panel (Cerep): 44 targets % inh @ 10 microM, Nb of targets > 50% inh” value was 0/44. The “PD/IL6 mouse top DR 0.01-10 mM: Systemic level @ 10 mM - 2 hrs” value in series [11] is on record as 9.8 nM. Also, in “SF logD”, the log distribution coefficient (logD) stood at 3.1. Besides, the IC50 in series [6] (setting [12]) came to 0.275 µM. The IC50 in series [6] (setting [13]) came to 0.011 µM. In addition, in series [7], the “iv PK rat: Cl (value in brackets, %)” value turned out to be 46%; the clearance amounted to 36 mL/min/kg; the Vd amounted to 0.8 L/kg; the half-life is 15.6 min. For the same compound, in the series on 3T3 murine fibroblasts, the Phototox entry is recorded as “Neg/Neg”. In series [8], this compound returned a rFU of 2.8%. Moreover, in series [9], the “PD/IL6 mouse top @1 mM % inh vs vehicle” value worked out at 81%/ND Tofa @ 10 mM. Besides, in [10], the “iv PK minipig: Cl (value in brackets, %)” value worked out at 97% and the clearance turned out to be 27 mL/min/kg. Further, the concentration for half-maximal inhibition (IC50) in the series on IL6 signalling in hWB stood at 6.9 µM.

Broadly, the pKa is the negative logarithm of the acid dissociation constant. A lower pKa goes with a stronger acid or weaker base. Broadly, the logD is lipophilicity at a set pH, counting ionised and neutral species. The low end stands for a more hydrophilic compound, the high end for a more lipophilic compound. Usually IC50 stands for the point on the concentration scale where inhibition reaches its midpoint. As usually defined, the Vd is the apparent volume that relates the amount in the body to the concentration in plasma or blood.

These data come from patent US12606559B2, “JAK inhibitor compounds, methods for synthesizing same and use thereof” (GALDERMA HOLDING SA, priority 2020, dated 2026).
